Tests used:
Format in all cases: biochemical
Pim-1 = Pim-1 (Homo sapiens (Human), UniProt P11309); assay: Pim-1 kinase assay; conditions: 1 mM ATP; read-out: PIM1 IC50
Summary of the method: (§1)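 Biotin-BAD peptide (0.05 μM) phosphorylated with 1 mM ATP by 2.5 pM Pim-1 or 1.25 pM Pim-3 in Tris pH 7.5/MgCl2/DTT buffer, 1 h at 25° C. EDTA stop; phospho-BAD (Ser112) antibody with streptavidin donor and Protein-A acceptor beads, 1 h dark at room temperature before AlphaScreen-type bead read.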

Pim-2 = Pim-2 (Homo sapiens (Human), UniProt Q9P1W9); assay: Pim-2 kinase assay; conditions: 1 mM ATP; read-out: PIM2 IC50
Summary of the method: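 TR-FRET assay with 1 nM enzyme, 0.05 μM fluorescein-CREBtide and 1 mM ATP in Tris pH 7.5 buffer with MgCl2, DTT, BSA and Tween-20, run 2 h at 25° C. Stopped with EDTA and Tb-labelled anti-CREB pSer133 antibody, then read after 30 min at room temperature.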

Pim-3 = Pim-3 (Homo sapiens (Human), UniProt Q86V86); assay: Pim-3 kinase assay; conditions: 1 mM ATP; read-out: PIM3 IC50
Summary of the method: as §1

Sequence of Pim-1 (P11309 whole entry): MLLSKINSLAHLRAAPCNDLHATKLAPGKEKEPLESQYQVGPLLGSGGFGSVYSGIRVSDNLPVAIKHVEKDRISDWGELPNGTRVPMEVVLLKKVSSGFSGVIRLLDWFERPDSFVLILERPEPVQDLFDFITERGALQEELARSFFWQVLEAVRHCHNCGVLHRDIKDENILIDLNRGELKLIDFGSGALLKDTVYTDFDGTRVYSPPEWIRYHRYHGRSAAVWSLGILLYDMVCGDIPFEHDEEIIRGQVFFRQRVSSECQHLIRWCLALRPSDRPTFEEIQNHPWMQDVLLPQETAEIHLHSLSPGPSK
Sequence of Pim-2 (Q9P1W9 whole entry): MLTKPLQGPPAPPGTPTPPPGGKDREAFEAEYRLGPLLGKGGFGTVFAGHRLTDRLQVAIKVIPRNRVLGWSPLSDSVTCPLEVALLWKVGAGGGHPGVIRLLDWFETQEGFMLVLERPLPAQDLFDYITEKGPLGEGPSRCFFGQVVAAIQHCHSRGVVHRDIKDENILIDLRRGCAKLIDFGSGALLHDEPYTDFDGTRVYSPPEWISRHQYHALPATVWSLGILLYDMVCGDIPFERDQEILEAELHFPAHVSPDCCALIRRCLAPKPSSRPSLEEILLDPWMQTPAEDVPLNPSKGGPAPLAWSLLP

Row | SMILES | IC50 (Pim-1) [nM] | IC50 (Pim-2) [nM] | IC50 (Pim-3) [nM]
1 | COC1CCN(c2cnc3c(C(=O)Nc4cnccc4[C@@H]4C[C@H](C)C[C@H](N)C4)ccc(F)c3c2)CC1 [Example 131, N-(4-((1R,3S,5S)-3-Amino-5-methylcyclohexyl)pyridin-3-yl)-5-fluoro-3-(4-methoxypiperidin-1-yl)quinoline-8-carboxamide] | ≤ 10 | 100 to 1000 | ≤ 10
2 | C[C@@H]1C[C@H](N)C[C@H](c2ccncc2NC(=O)c2ccc(F)c3cc(N4CCN(C)C(=O)[C@@H]4C)cnc23)C1 [Example 112, N-(4-((1R,3S,5S)-3-Amino-5-methylcyclohexyl)pyridin-3-yl)-3-((5)-2,4-dimethyl-3-oxopiperazin-1-yl)-5-fluoroquinoline-8-carboxamide] | ≤ 10 | ≤ 100 | ≤ 10
3 | C[C@@H]1C[C@H](N)C[C@H](c2ccncc2NC(=O)c2cccc3cc(N4CCOC[C@H]4C)cnc23)C1 [Example 67, N-(4-((1R,3S,5S)-3-Amino-5-methylcyclohexyl)pyridin-3-yl)-3-((R)-3-methylmorpholino)quinoline-8-carboxamide] | ≤ 10 | ≤ 100 | ≤ 10
4 | C[C@@H]1C[C@H](N)C[C@H](c2ccncc2NC(=O)c2ccc(F)c3cc(N[C@@H](C)C4CC4)cnc23)C1 [Example 52, N-(4-((1R,3S,5S)-3-Amino-5-methylcyclohexyl)pyridin-3-yl)-3-((S)-1-cyclopropylethylamino)-5-fluoroquinoline-8-carboxamide] | ≤ 10 | 1000 to 10000 | 10 to 50
5 | C[C@@H]1C[C@H](N)C[C@H](c2ccncc2NC(=O)c2ccc(F)c3cc(N4CCc5nn(C)cc5C4)cnc23)C1 [Example 119, N-(4-((1R,3S,5S)-3-Amino-5-methylcyclohexyl)pyridin-3-yl)-5-fluoro-3-(2-methyl-6,7-dihydro-2H-pyrazolo[4,3-c]pyridin-5(4H)-yl)quinoline-8-carboxamide] | ≤ 10 | ≤ 100 | ≤ 10
6 | COC[C@@H]1CCCN1c1cnc2c(C(=O)Nc3cnccc3[C@@H]3C[C@H](C)C[C@H](N)C3)ccc(F)c2c1 [Example 48, N-(4-((1R,3S,5S)-3-Amino-5-methylcyclohexyl)pyridin-3-yl)-5-fluoro-3-((S)-2-(methoxymethyl)pyrrolidin-1-yl)quinoline-8-carboxamide] | ≤ 10 | 100 to 1000 | ≤ 10
7 | C[C@@H]1C[C@H](N)C[C@H](c2ccncc2NC(=O)c2ccc(F)c3cc(-c4ccc(F)c5cccnc45)cnc23)C1 [Example 60, N-(4-((1R,3S,5S)-3-Amino-5-methylcyclohexyl)pyridin-3-yl)-5,5′-difluoro-3,8′-biquinoline-8-carboxamide] | ≤ 10 | 1000 to 10000 | 10 to 50
8 | C[C@@H]1C[C@H](N)C[C@H](c2ccncc2NC(=O)c2ccc(F)c3cc(N(C)CC(F)F)cnc23)C1 [Example 42, N-(4-((1R,3S,5S)-3-Amino-5-methylcyclohexyl)pyridin-3-yl)-3-((2,2-difluoroethyl)(methyl)amino)-5-fluoroquinoline-8-carboxamide] | ≤ 10 | ≤ 100 | ≤ 10
9 | C[C@@H]1C[C@H](N)C[C@H](c2ccncc2NC(=O)c2ccc(F)c3cc(NCC(F)F)cnc23)C1 [Example 27, N-{4-[(1R,3S,5S)-3-Amino-5-methylcyclohexyl]pyridin-3-yl}-3-[(2,2-difluoroethyl)amino]-5-fluoroquinoline-8-carboxamide] | ≤ 10 | ≤ 100 | ≤ 10
10 | COC1CCCN(c2cnc3c(C(=O)Nc4cnccc4[C@@H]4C[C@H](C)C[C@H](N)C4)ccc(F)c3c2)C1 (stereo in doubt) [Example 12, N-{4-[(1R,3S,5S)-3-Amino-5-methylcyclohexyl]pyridin-3-yl}-5-fluoro-3-[(3S)-3-methoxypiperidin-1-yl]quinoline-8-carboxamide] | ≤ 10 | 100 to 1000 | ≤ 10

Reference: US9920032B2, “Heterocyclic compounds useful as pim kinase inhibitors” (Incyte Corporation, priority 2015, dated 2018)
